According to patent US20160262390A1, “FIELD APPLICATION OF SUGARS TO INCREASE CROP YIELD” (Minn-Dak Farmers Cooperative, priority 2015, published 2016):

Columns and labels:
corn [1] = assay: Pre-planting sugar application on corn, Hickson; format: in vivo; conditions: for Yield / Yield Increase Compared to Check Average: ND
Description: (§1) The field trials were conducted simultaneously in two different planting locations for each of the crops. One location was near the community of Foxhome in Wilkin County, Minnesota (hereafter referred to as “Foxhome”) while the second location was near the community of Hickson in Cass County, North Dakota (hereafter referred to as “Hickson”). The Foxhome and Hickson locations are on opposite sides of the Red River along the border of Minnesota and North Dakota and separated by a distance exceeding 40 miles. Generally, the Foxhome location has heavier clay loam soil conditions while Hickson has sandy loam soil conditions.
(§2) At each of the Foxhome and Hickson locations, a total of thirty two (32) treatments were conducted for each crop (sugarbeets, soybeans, corn, wheat). Each treatment was replicated four times arranged in a Randomized Complete Block (RCB) Design in the same field. Each replication consisted of a plot measuring twenty five (25) feet in length and eleven (11) feet in width. In selecting the particular seed types for evaluation, popular commercial varieties to the region were utilized. For the row crops (sugarbeets, soybeans, corn) each replication included a width of six (6) rows with twenty two (22) inch row spacing and having a row length of twenty five (25) feet. The wheat was planted in accordance with standard commercial practices. To reduce/eliminate any treatment impacts between adjacent plots for the crops, only the four (4) interior rows of each plot were treated and evaluated for row crops, while for wheat, only the interior 7.33 feet of each plot were treated and evaluated. With the exception of the treatment program applied to the individual plots, which will be discussed below, conventional commercial growing practices for each planting location were otherwise followed during the field trials. While the individual plots at the same location, Hickson or Foxhome, experienced essentially the same growing conditions throughout the season, there were various differences associated with localized precipitation, general growing conditions, soil classification and the like, which contributed to performance differences between the Hickson and Foxhome locations.
(§3) The treatment regimen at each location for each of the tested crops included two (2) untreated treatments (Treatments 31 and 32) in which no sugar was applied and constitute the control elements. […] Six (6) treatments (Treatments 13-18) included the liquid application of high fructose corn syrup (hereafter “HFCS”) at varying rates. Six treatments (Treatments 19-24) included the liquid application of dextrose (hereafter “LIQDEX”) at varying rates. Six (6) treatments (Treatments 25-30) included the application of powdered cellulose (hereafter “POWCEL”) at varying rates. For the sugar applied in a solid form, granulated or powdered, field application was conducted via conventional broadcast spreading. For the sugar applied in a liquid form, a liquid concentrate was mixed and diluted with water in a tank and a conventional sprayer was configured such that the liquid was sprayed so as to have the same sugar equivalent (measured in pounds/per acre) as the sugar in solid form. Regardless of whether the sugar was applied as a solid or liquid, the sugar was applied directly onto the soil before spring tillage, lightly worked into the ground and followed by planting of the crop seed in the treated ground. A summary of application rates for each plot treatments are contained in Table 7 below and were used consistently with each of the crops (sugarbeets, soybeans, corn, wheat).
(§4) To test the impact of pre-planting application rates and sugar source on corn, identical field trials using Peterson Farms brand corn seed were conducted at the Foxhome and Hickson locations. Planting of the corn seed and harvest of the corn were conducted on the same dates so as to have essentially the same growing season. […]

corn [2] = assay: Pre-planting sugar application on corn, Foxhome; format: in vivo; conditions: for Yield / Yield Increase Compared to Check Average: MN
Description: as §1, §2, §3, §4

soybeans = assay: Pre-planting sugar application on soybeans, Hickson; format: in vivo, soybean; conditions: for Yield / Yield Increase Compared to Check Average: ND
Description: as §1, §2, §3
To test the impact of pre-planting application rates and sugar source on soybeans, identical field trials using Syngenta brand soybean seed were conducted at the Foxhome and Hickson locations. Planting of the soybean seed and harvest of the soybeans were conducted on approximately the same dates so as to have essentially the same growing season. […]

wheat = assay: Pre-planting sugar application on wheat, Hickson; format: in vivo; conditions: for Yield / Yield Increase Compared to Check: ND
Description: as §1, §2, §3
To test the impact of pre-planting application rates and sugar source on wheat, identical field trials using Westbred Mayville wheat seed were conducted at the Foxhome and Hickson locations. Planting of the wheat seed and harvest of the wheat were conducted on the same dates so as to have essentially the same growing season. […]

sugarbeets = assay: Pre-planting sugar application on sugarbeets, Hickson; format: in vivo, sugarbeet; conditions: for Recoverable Sugar Yield / Recoverable Sugar Yield Increase Compared to Check Average / Sugarbeet Yield: ND
Description: as §1, §2, §3
To test the impact of pre-planting application rates and sugar source on sugarbeets, identical field trials using Crystal® brand ACH 260 sugarbeet seed were conducted at the Foxhome and Hickson locations. Planting of the sugarbeet seed and harvest of the sugarbeets were conducted on as close to the same dates as practical so as to have essentially the same length growing season. […]

[3] = six rates (25-250 pounds/Acre) per sugar, thirty in all

OC[C@H]1O[C@@](CO)(O[C@H]2O[C@H](CO)[C@@H](O)[C@H](O)[C@H]2O)[C@@H](O)[C@@H]1O [GS, sucrose]
Yield (corn [1]; pre-planting 25 pounds/Acre): 188.56 Bushels/Acre | Yield Increase Compared to Check Average (corn [1]; pre-planting 25 pounds/Acre): 22.03% | Yield (corn [1]; pre-planting 50 pounds/Acre): 153.24 Bushels/Acre | Yield Increase Compared to Check Average (corn [1]; pre-planting 50 pounds/Acre): −0.83% | Yield (corn [1]; pre-planting 100 pounds/Acre): 165.78 Bushels/Acre | Yield Increase Compared to Check Average (corn [1]; pre-planting 100 pounds/Acre): 7.29% | Yield (corn [1]; pre-planting 150 pounds/Acre): 161.20 Bushels/Acre | Yield Increase Compared to Check Average (corn [1]; pre-planting 150 pounds/Acre): 4.32% | Yield (corn [1]; pre-planting 200 pounds/Acre): 163.58 Bushels/Acre | Yield Increase Compared to Check Average (corn [1]; pre-planting 200 pounds/Acre): 5.86% | Yield (corn [1]; pre-planting 250 pounds/Acre): 156.06 Bushels/Acre | Yield Increase Compared to Check Average (corn [1]; pre-planting 250 pounds/Acre): 1.00% | number of treatments showing yield improvement compared to check average (corn [1]; [3]): five of the six | Yield (corn [2]; pre-planting 25 pounds/Acre): 271.62 Bushels/Acre | Yield Increase Compared to Check Average (corn [2]; pre-planting 25 pounds/Acre): 2.20% | Yield (corn [2]; pre-planting 50 pounds/Acre): 272.13 Bushels/Acre | Yield Increase Compared to Check Average (corn [2]; pre-planting 50 pounds/Acre): 2.40% | Yield (corn [2]; pre-planting 100 pounds/Acre): 274.80 Bushels/Acre | Yield Increase Compared to Check Average (corn [2]; pre-planting 100 pounds/Acre): 3.40% | Yield (corn [2]; pre-planting 150 pounds/Acre): 263.34 Bushels/Acre | Yield Increase Compared to Check Average (corn [2]; pre-planting 150 pounds/Acre): −0.91% | Yield (corn [2]; pre-planting 200 pounds/Acre): 264.61 Bushels/Acre | Yield Increase Compared to Check Average (corn [2]; pre-planting 200 pounds/Acre): −0.43% | Yield (corn [2]; pre-planting 250 pounds/Acre): 260.71 Bushels/Acre | Yield Increase Compared to Check Average (corn [2]; pre-planting 250 pounds/Acre): −1.90% | number of treatments showing yield improvement compared to check average (corn [2]; [3]): three of the six | Yield (soybeans; pre-planting 25 pounds/Acre): 62.54 Bushels/Acre | Yield Increase Compared to Check Average (soybeans; pre-planting 25 pounds/Acre): 1.28% | Yield (soybeans; pre-planting 50 pounds/Acre): 63.6 Bushels/Acre | Yield Increase Compared to Check Average (soybeans; pre-planting 50 pounds/Acre): 3.00% | Yield (soybeans; pre-planting 100 pounds/Acre): 62.06 Bushels/Acre | Yield Increase Compared to Check Average (soybeans; pre-planting 100 pounds/Acre): 0.50% | Yield (soybeans; pre-planting 150 pounds/Acre): 64.21 Bushels/Acre | Yield Increase Compared to Check Average (soybeans; pre-planting 150 pounds/Acre): 3.98% | Yield (soybeans; pre-planting 200 pounds/Acre): 62.15 Bushels/Acre | Yield Increase Compared to Check Average (soybeans; pre-planting 200 pounds/Acre): 0.65% | Yield (soybeans; pre-planting 250 pounds/Acre): 61.12 Bushels/Acre | Yield Increase Compared to Check Average (soybeans; pre-planting 250 pounds/Acre): −1.02% | number of treatments showing yield improvement compared to check average (soybeans; [3]): five of the six | Yield (wheat; pre-planting 25 pounds/Acre): 51.82 Bushels/Acre | Yield Increase Compared to Check (wheat; pre-planting 25 pounds/Acre): 5.45% | Yield (wheat; pre-planting 50 pounds/Acre): 52.47 Bushels/Acre | Yield Increase Compared to Check (wheat; pre-planting 50 pounds/Acre): 6.78% | Yield (wheat; pre-planting 100 pounds/Acre): 49.94 Bushels/Acre | Yield Increase Compared to Check (wheat; pre-planting 100 pounds/Acre): 1.63% | Yield (wheat; pre-planting 150 pounds/Acre): 44.54 Bushels/Acre | Yield Increase Compared to Check (wheat; pre-planting 150 pounds/Acre): −9.36% | Yield (wheat; pre-planting 200 pounds/Acre): 50.25 Bushels/Acre | Yield Increase Compared to Check (wheat; pre-planting 200 pounds/Acre): 2.26% | Yield (wheat; pre-planting 250 pounds/Acre): 50.40 Bushels/Acre | Yield Increase Compared to Check (wheat; pre-planting 250 pounds/Acre): 2.56% | number of treatments showing yield improvement compared to check average (wheat; [3]): five of the six | Recoverable Sugar Yield (sugarbeets; pre-planting 25 pounds/Acre): 9560 Pounds/Acre | Recoverable Sugar Yield Increase Compared to Check Average (sugarbeets; pre-planting 25 pounds/Acre): −2.54% | Sugarbeet Yield (sugarbeets; pre-planting 25 pounds/Acre): 32.73 Tons/Acre | Recoverable Sugar Yield (sugarbeets; pre-planting 50 pounds/Acre): 10509 Pounds/Acre | Recoverable Sugar Yield Increase Compared to Check Average (sugarbeets; pre-planting 50 pounds/Acre): 7.14% | Sugarbeet Yield (sugarbeets; pre-planting 50 pounds/Acre): 35.37 Tons/Acre | Recoverable Sugar Yield (sugarbeets; pre-planting 100 pounds/Acre): 9360 Pounds/Acre | Recoverable Sugar Yield Increase Compared to Check Average (sugarbeets; pre-planting 100 pounds/Acre): −4.58% | Sugarbeet Yield (sugarbeets; pre-planting 100 pounds/Acre): 31.94 Tons/Acre | Recoverable Sugar Yield (sugarbeets; pre-planting 150 pounds/Acre): 9877 Pounds/Acre | Recoverable Sugar Yield Increase Compared to Check Average (sugarbeets; pre-planting 150 pounds/Acre): 0.69% | Sugarbeet Yield (sugarbeets; pre-planting 150 pounds/Acre): 32.34 Tons/Acre | Recoverable Sugar Yield (sugarbeets; pre-planting 200 pounds/Acre): 9426 Pounds/Acre | Recoverable Sugar Yield Increase Compared to Check Average (sugarbeets; pre-planting 200 pounds/Acre): −3.90% | Sugarbeet Yield (sugarbeets; pre-planting 200 pounds/Acre): 31.37 Tons/Acre | Recoverable Sugar Yield (sugarbeets; pre-planting 250 pounds/Acre): 9587 Pounds/Acre | Recoverable Sugar Yield Increase Compared to Check Average (sugarbeets; pre-planting 250 pounds/Acre): −2.26% | Sugarbeet Yield (sugarbeets; pre-planting 250 pounds/Acre): 30.7 Tons/Acre | number of treatments showing negative yield benefits compared to check average (sugarbeets; six rates per sugar): four of the six
